One test concerns the target T1, human GLUT1 (Homo sapiens, UniProt P11166).
T1 construct: expressed in transfected cells
T1 sequence (P11166 1-492): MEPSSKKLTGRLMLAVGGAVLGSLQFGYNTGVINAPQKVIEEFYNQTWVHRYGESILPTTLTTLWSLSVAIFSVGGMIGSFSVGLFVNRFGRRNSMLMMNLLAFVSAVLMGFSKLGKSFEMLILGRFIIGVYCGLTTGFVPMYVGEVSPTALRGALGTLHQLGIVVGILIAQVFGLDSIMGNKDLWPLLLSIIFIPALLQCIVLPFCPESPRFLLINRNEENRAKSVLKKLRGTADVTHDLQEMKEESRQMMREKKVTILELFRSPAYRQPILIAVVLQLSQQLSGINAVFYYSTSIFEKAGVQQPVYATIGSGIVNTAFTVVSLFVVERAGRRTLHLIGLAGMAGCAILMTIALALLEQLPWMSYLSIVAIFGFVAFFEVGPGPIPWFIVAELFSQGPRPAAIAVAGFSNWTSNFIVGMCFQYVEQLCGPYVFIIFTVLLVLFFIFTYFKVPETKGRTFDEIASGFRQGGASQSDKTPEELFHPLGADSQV
Kind of test: [3H]-deoxy-D-glucose uptake assay, GLUT1. It counts as cell-based. The conditions noted are these: [3H]-deoxy-D-glucose uptake in HEK293 cells stably expressing human GLUT1. Summed up: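 HEK293 cells stably overexpressing human GLUT1 or GLUT2, seeded at 60,000 per well, treated with compounds in glucose-free uptake buffer for 30 min at 37 °C. [3H]-deoxy-D-glucose uptake quantified by scintillation counting after ice-cold PBS washes; IC50 determined.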

The next test deals with T2, human GLUT2 (Homo sapiens, UniProt P11168).
T2 construct: expressed in transfected cells
T2 sequence (P11168 1-524): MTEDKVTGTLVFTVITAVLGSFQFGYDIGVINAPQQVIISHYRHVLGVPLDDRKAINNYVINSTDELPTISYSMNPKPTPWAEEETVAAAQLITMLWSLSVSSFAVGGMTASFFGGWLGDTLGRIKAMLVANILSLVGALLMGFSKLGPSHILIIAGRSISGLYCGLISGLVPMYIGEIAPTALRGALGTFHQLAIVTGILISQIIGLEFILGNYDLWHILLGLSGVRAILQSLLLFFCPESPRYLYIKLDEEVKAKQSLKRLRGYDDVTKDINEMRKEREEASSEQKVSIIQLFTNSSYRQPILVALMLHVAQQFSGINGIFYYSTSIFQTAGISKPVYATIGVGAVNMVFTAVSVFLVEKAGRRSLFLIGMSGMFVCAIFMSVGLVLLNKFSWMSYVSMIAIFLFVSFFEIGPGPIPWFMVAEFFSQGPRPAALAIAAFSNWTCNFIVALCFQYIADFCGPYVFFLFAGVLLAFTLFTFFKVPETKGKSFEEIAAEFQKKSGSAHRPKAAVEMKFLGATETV
Kind of test: [3H]-deoxy-D-glucose uptake assay, GLUT2. The class given is cell-based. Conditions: [3H]-deoxy-D-glucose uptake in HEK293 cells stably expressing human GLUT2. As to the method:
HEK293 cells were engineered to stably express either human GLUT1, GLUT2, GLUt3 or GLUT4 by transfection with the pReceiver-Lv105 plasmid, containing either hGLUT1, hGLUT2, hGLUT3, or hGLUT4 gene constructs with lipofectamine 2000, hGLUT1- hGLUT2- hGLUT3- or hGLUT4-overexpressing polyclonal populations were isolated under purinomycin selective pressure (1 μg/ml) and maintained in Dulbecco's modified Eagle's medium supplemented with 1 μg/ml purinomycin+10% foetal bovine serum (FBS).
60,000 cells per well were seeded overnight into poly-D-lysine coasted 96-well plates. […] 90 μl of test compounds were added in glucose-free uptake buffer and cells were incubated at 37° C. for 30 min.
Cells were then washed twice with ice-cold PBS and 100 μl of Microscint-20 was added per well. Glucose uptake was quantified with a scintillation counter. The half maximal inhibitory concentration (IC50) (a measure of the effectiveness of the test compound in inhibiting glucose uptake) was determined.

Consider 24 compounds from US20160120863A1, “SLC2A TRANSPORTER INHIBITORS” (IOMET PHARMA LTD., priority 2013, published 2016).

The structures appear in SMILES notation.

As to `CN(c1ccc2nc(-c3ccc(Cl)cc3)c(CN3CCNC(=O)C3)n2c1)S(C)(=O)=O` [Compound 325], at human GLUT1, the “GLUT1 pIC50” value was “+++ (pIC50 ≧ 6.00)”. Further, the “GLUT2 pIC50” value on human GLUT2 is reported as “++ (pIC50 5.00-5.99)”.

`CC(=O)N1CCN(Cc2c(-c3ccc(Cl)cc3)nc3ccc(N(C)S(=O)(=O)C4CC4)cn23)CC1` [Compound 327]: the “GLUT1 pIC50” value on human GLUT1 is on record as “+++ (pIC50 ≧ 6.00)”. Further, the “GLUT2 pIC50” value on human GLUT2 is on record as “++ (pIC50 5.00-5.99)”.

Take `Fc1cncc(F)c1-c1ccc2nc(-c3ccc(Cl)cc3)c(CN3CCOCC3)n2c1` [Compound 328]: the “GLUT1 pIC50” value at human GLUT1 is on record as “++ (pIC50 5.00-5.99)”. Besides, at human GLUT2, the “GLUT2 pIC50” value was “++ (pIC50 5.00-5.99)”.

As to `Clc1ccc(-c2nc3ccc(-c4ncon4)cn3c2CN2CCn3ncnc3C2)c(Cl)c1` [Compound 329], the “GLUT1 pIC50” value on human GLUT1 was “+++ (pIC50 ≧ 6.00)”. Besides, the “GLUT2 pIC50” value at human GLUT2 is “+++ (pIC50 ≧ 6.00)”.

As to `CS(=O)(=O)N1CCN(Cc2c(-c3ccc(Cl)cc3Cl)nc3cnc(C4CC4)cn23)CC1` [Compound 330], at human GLUT1, the “GLUT1 pIC50” value was “+++ (pIC50 ≧ 6.00)”. The “GLUT2 pIC50” value on human GLUT2 was “++ (pIC50 5.00-5.99)”.

Take `CC(=O)N1CCN(Cc2c(-c3ccc(Cl)cc3)nc3cnc(NS(C)(=O)=O)cn23)CC1` [Compound 331]: the “GLUT1 pIC50” value at human GLUT1 is on record as “+− (pIC50 < 4.00)”. For the same compound, the “GLUT2 pIC50” value on human GLUT2 is “+− (pIC50 < 4.00)”.

With `CS(=O)(=O)Nc1ccc2nc(-c3ccc(Cl)cc3)c(CN3CCn4ncnc4C3)n2c1` [Compound 337], at human GLUT1, the “GLUT1 pIC50” value is given as “+++ (pIC50 ≧ 6.00)”. Besides, the “GLUT2 pIC50” value at human GLUT2 was “++ (pIC50 5.00-5.99)”.

With `O=C(C1COC1)N1CCN(Cc2c(-c3ccc(Cl)cc3Cl)nc3ccc(-c4ncon4)cn23)CC1` [Compound 338], the “GLUT1 pIC50” value on human GLUT1 is “+++ (pIC50 ≧ 6.00)”. In addition, the “GLUT2 pIC50” value on human GLUT2 was “+++ (pIC50 ≧ 6.00)”.

As to `Clc1ccc(-c2nc3ccc(-c4ccccc4)cn3c2CCN2CCOCC2)cc1` [Compound 342], the “GLUT1 pIC50” value on human GLUT1 is given as “+− (pIC50 < 4.00)”. The “GLUT2 pIC50” value on human GLUT2 is listed as “++ (pIC50 5.00-5.99)”.

Take `CC(=O)N1CCN(Cc2c(-c3ccc(Cl)cc3Cl)nc3cnc(NS(C)(=O)=O)cn23)CC1` [Compound 344]: the “GLUT1 pIC50” value at human GLUT1 was “+− (pIC50 < 4.00)”. Also, at human GLUT2, the “GLUT2 pIC50” value is recorded as “+− (pIC50 < 4.00)”.

Turning to `CS(=O)(=O)Nc1ccc2nc(-c3ccc(Cl)cc3Cl)c(CN3CCn4ncnc4C3)n2c1` [Compound 345], the “GLUT1 pIC50” value on human GLUT1 is reported as “+++ (pIC50 ≧ 6.00)”. The “GLUT2 pIC50” value on human GLUT2 is listed as “++ (pIC50 5.00-5.99)”.

For the compound `CC(=O)N1CCN(Cc2c(-c3ccc(Cl)cc3Cl)nc3cnc(N(C)S(C)(=O)=O)cn23)CC1` [Compound 347], on human GLUT1, the “GLUT1 pIC50” value is recorded as “+++ (pIC50 ≧ 6.00)”. Besides, the “GLUT2 pIC50” value on human GLUT2 is reported as “++ (pIC50 5.00-5.99)”.

Turning to `Clc1ccc(-c2nc3cnc(C4CC4)cn3c2CN2CCNCC2)cc1` [Compound 348], the “GLUT1 pIC50” value on human GLUT1 was “+− (pIC50 < 4.00)”. Also, the “GLUT2 pIC50” value at human GLUT2 is on record as “+− (pIC50 < 4.00)”.

On to `CC(=O)N1CCN(Cc2c(-c3ccc(Cl)cc3Cl)nc3cnccn23)CC1` [Compound 349], for which, on human GLUT1, the “GLUT1 pIC50” value is “++ (pIC50 5.00-5.99)”. In addition, the “GLUT2 pIC50” value at human GLUT2 is recorded as “+− (pIC50 < 4.00)”.

As for `Clc1ccc(-c2nc3ccc(-c4ccccc4)cn3c2CN2CCSCC2)cc1` [Compound 352], the “GLUT1 pIC50” value on human GLUT1 is on record as “+− (pIC50 < 4.00)”. The “GLUT2 pIC50” value on human GLUT2 was “+− (pIC50 < 4.00)”.

Take `CC(=O)N1CCN(Cc2c(-c3ccc(Cl)cc3Cl)nc3ccc(N4CCCCS4(=O)=O)cn23)CC1` [Compound 354]: at human GLUT1, the “GLUT1 pIC50” value is on record as “+++ (pIC50 ≧ 6.00)”. Moreover, the “GLUT2 pIC50” value at human GLUT2 is on record as “+++ (pIC50 ≧ 6.00)”.

As to `CS(=O)(=O)Nc1ccc2nc(-c3ccc(Cl)cc3Cl)c(CN3CCOCC3)n2c1` [Compound 357], the “GLUT1 pIC50” value on human GLUT1 was “+++ (pIC50 ≧ 6.00)”. Besides, at human GLUT2, the “GLUT2 pIC50” value was “++ (pIC50 5.00-5.99)”.

Turning to `CC(=O)N1CCN(Cc2c(-c3ccc(Cl)cc3Cl)nc3cnc(C(C)C)cn23)CC1` [Compound 358], the “GLUT1 pIC50” value on human GLUT1 was “+++ (pIC50 ≧ 6.00)”. Further, the “GLUT2 pIC50” value at human GLUT2 was “+++ (pIC50 ≧ 6.00)”.

`CS(=O)(=O)Nc1ccc2nc(-c3ccc(Cl)cc3Cl)c(CN3CCNC(=O)C3)n2c1` [Compound 359]: on human GLUT1, the “GLUT1 pIC50” value was “+++ (pIC50 ≧ 6.00)”. On human GLUT2, the “GLUT2 pIC50” value is “++ (pIC50 5.00-5.99)”.

Turning to `CS(=O)(=O)Nc1ccc2nc(-c3ccc(Cl)cc3Cl)c(CN3CCCOCC3)n2c1` [Compound 362], at human GLUT1, the “GLUT1 pIC50” value was “+++ (pIC50 ≧ 6.00)”. The “GLUT2 pIC50” value at human GLUT2 is reported as “++ (pIC50 5.00-5.99)”.

As for `O=S1(=O)CCN(Cc2c(-c3ccc(Cl)cc3)nc3ccc(-c4ccccc4)cn23)CC1` [Compound 364], the “GLUT1 pIC50” value on human GLUT1 is listed as “++ (pIC50 5.00-5.99)”. Moreover, the “GLUT2 pIC50” value on human GLUT2 is “+− (pIC50 < 4.00)”.

Take `CS(=O)(=O)c1ccc2nc(-c3ccc(Cl)cc3)c(CN3CCOCC3)n2c1` [Compound 379]: the “GLUT1 pIC50” value at human GLUT1 is “++ (pIC50 5.00-5.99)”. Besides, the “GLUT2 pIC50” value on human GLUT2 is listed as “+− (pIC50 < 4.00)”.

As for `CC(=O)N1CCN(Cc2c(-c3ccc(Cl)cc3)nc3ccc(S(=O)(=O)N4CCCC4)cn23)CC1` [Compound 383], the “GLUT1 pIC50” value on human GLUT1 is reported as “+++ (pIC50 ≧ 6.00)”. Also, on human GLUT2, the “GLUT2 pIC50” value is reported as “++ (pIC50 5.00-5.99)”.

For the compound `CCNS(=O)(=O)c1ccc2nc(-c3ccc(Cl)cc3)c(CN3CCN(C(C)=O)CC3)n2c1` [Compound 384], the “GLUT1 pIC50” value on human GLUT1 is “+++ (pIC50 ≧ 6.00)”. Further, the “GLUT2 pIC50” value on human GLUT2 is reported as “++ (pIC50 5.00-5.99)”.
